Key:
Assay type in all cases: cell-based, Staphylococcus aureus
S. aureus 1241 [1] = experiment: MIC for planktonic cell growth (A625nm); details: ≥80% inhibition, 24 h
Description: (§1) Ten concentrations of NAC, RLs, and UA were tested to determine the minimum inhibitory concentration for planktonic growth, and subsequently, the six highest concentrations were applied on preformed biofilms to evaluate the biofilm eradication ability of the compounds. MIC was defined as the lowest substance concentration able to inhibit at least 80% of microbial growth (MICPC80 for planktonic cells, MICBC80 for further growth of biofilm cells), inhibit 80% of metabolic activity (MICBM80 for biofilm metabolic activity, MICMPB80 for metabolic activity of preformed biofilm), prevent biofilm formation by at least 80% (MICBF80 for biofilm formation), or reduce a preformed biofilm by at least 80% (MICBR80 for biofilm reduction). The results of MICs are summarized in Table 1 (planktonic cells) and Table 2 (biofilm-associated cells).
(§2) The determination of MICs was performed according to Chlumsky et al.. Briefly, 96-well flat-bottomed microtiter plates were inoculated with 75 µL (for biofilm formation) or 100 µL (for preformed biofilm) of bacterial suspension (A625nm 0.08 to 0.1) in technical triplicates and were then carefully mixed with the dilution series of the test substances (24 h cultivation at 25 °C for S. Infantis, 37 °C for other strains) or were directly cultivated to preform biofilms (18 h). For a positive control of bacterial growth, the inoculum was mixed with a pure sterile medium. […] To evaluate planktonic cells growth (MICPC80) and further growth of biofilm cells (MICBC80), the optical density of the content of the microtiter plates was measured spectrophotometrically at 625 nm before and after 24 h (for biofilm formation) of cultivation or before and after additional 20 h incubation with the tested compound (for preformed biofilm). […] To evaluate the inhibition of biofilm formation (MICBF80) and reduction in preformed biofilms (MICBR80), biomass was quantified using crystal violet staining, and its metabolic activity (MICBM80 and MICMPB80) was estimated by using the MTT (thiazyl tetrazolium bromide, Sigma-Aldrich, USA) reduction assay, both measured spectrophotometrically at 595 nm.
(§3) All inhibitions were calculated using the formula of Chlumsky et al. below (Equation (1)):(1) A625(595)nm inhibition (%)=A625(595)nm (control) – A625(595)nm(natural substance)/A625(595)nm (control)× 100 where A625(595)nm (control) is the absorbance of bacterial suspension/biofilm itself, and A625(595)nm(natural substance) is the absorbance of the bacterial suspension/biofilm with the added natural substance (NAC, RLs, and UA).
(§4) When the minimum inhibitory concentration could not be determined, the MIC was established as >the highest tested concentration for NAC, RLs, and UA.

S. aureus 816 [2] = experiment: MIC for planktonic cell growth (A625nm); details: ≥80% inhibition, 24 h
Description: as §1, §2, §3, §4

S. aureus 1241 [3] = experiment: MIC for further growth of biofilm cells, preformed biofilm (A625nm); details: ≥80% inhibition, 18 h preformed biofilm, 20 h with substance
Description: as §1
The determination of MICs was performed according to Chlumsky et al.. […] To evaluate planktonic cells growth (MICPC80) and further growth of biofilm cells (MICBC80), the optical density of the content of the microtiter plates was measured spectrophotometrically at 625 nm before and after 24 h (for biofilm formation) of cultivation or before and after additional 20 h incubation with the tested compound (for preformed biofilm). […] To evaluate the inhibition of biofilm formation (MICBF80) and reduction in preformed biofilms (MICBR80), biomass was quantified using crystal violet staining, and its metabolic activity (MICBM80 and MICMPB80) was estimated by using the MTT (thiazyl tetrazolium bromide, Sigma-Aldrich, USA) reduction assay, both measured spectrophotometrically at 595 nm.
All inhibitions were calculated using the formula of Chlumsky et al. below (Equation (1)):(1) A625(595)nm inhibition (%)=A625(595)nm (control) – A625(595)nm(natural substance)/A625(595)nm (control)× 100 where A625(595)nm (control) is the absorbance of bacterial suspension/biofilm itself, and A625(595)nm(natural substance) is the absorbance of the bacterial suspension/biofilm with the added natural substance (NAC, RLs, and UA). […]

S. aureus 1241 [4] = experiment: CLSM analysis, biofilm prevention; details: for Thickness (µm) MICBM80 / Thickness (µm) subCBM80: 24 h exposure; for Thickness (µm) MICBM80: substance at its MICBM80, mean ± SD; for Thickness (µm) subCBM80: substance at subinhibitory concentration, mean ± SD
Description: (§5) Biofilm prevention and removal analyses were performed using previously determined minimum inhibitory and subinhibitory concentrations for metabolic activity (MICBM80, subCBM80; MICMPB80, subCMPB80) of NAC, RLs, and UA specific for each tested strain. Selected concentrations were used to evaluate the inhibition of biofilm formation (biofilm prevention) and the reduction in previously formed biofilms (biofilm removal) for the same set of microorganisms, with the exception of S. Infantis, which was excluded from the analysis due to its inability to form biofilm in the selected microtiter plate. Biofilm prevention and removal were observed using CLSM with specific staining to distinguish between live and membrane-compromised cells. Images were analyzed to evaluate (i). the total volume of the biomass, (ii). ratios of live and membrane-compromised cells, and (iii). to calculate biofilm volume reduction for individual organisms after the respective treatment types. The total biofilm volume was normalized by the area of the well and expressed as an average biofilm thickness. Complete data are provided in Supplementary Materials (Tables S1–S8).
(§6) For both inhibition and reduction of biofilms, overnight cultures from BHI were diluted in TSB + 1% Glc to reach an absorbance of 0.08 to 0.1 at 625 nm. The inoculum (150 µL) was transferred into wells of the 96-well flat-bottomed Ibidiμ-Plate (Ibidi, Gräfelfing, Germany) and mixed with 150 µL of each of the three tested substances in technical quadruplicates, followed by incubation at 37 °C for 24 h. Simultaneously, the prepared bacterial suspensions were inoculated to an additional microtiter plate (200 µL) and allowed to form biofilm overnight (18 h at 37 °C). After the incubation, the content of the well was drained off, and 200 µL of each of the three tested substances was added to the plate, which was then incubated for an additional 20 h. The used concentrations of the substances represented the subinhibitory and minimum inhibitory concentrations for metabolic activity (subCBM80, MICBM80; subCMPB80, MICMPB80). Both setups contained a positive control of the bacterial growth (inoculum mixed with sterile TSB + 1% Glc medium) and a control monitoring microbial contamination (sterile medium). Non-treated wells were used as a positive control for comparison between non-treated and treated biofilm mass.
(§7) Prior to the imaging, the wells were stained with the LIVE/DEAD® BacLight™ Bacterial Viability Kit (Thermo Fisher Scientific, MA, USA) following the manufacturer’s guidelines and Drago et al.. Briefly, equal volumes of SYTO® 9 and propidium iodide were combined with the sterile distilled water to reach a final concentration of […]. The biofilm mass was stained using 300 µL of the staining solution per well followed by incubation at 37 °C in the dark for 15 min. Stained wells were washed once with sterile distilled water, which was then added to each well (300 µL). Images were acquired with an inverted Leica SP5 CLSM using a 1.25× dry objective (WD 3.7 mm, Z-resolution 27 µm, up to 24 Z-stacks per well) to visualize an entire well. Samples were kept at the cultivation conditions (37 °C, 5% CO2, 90% humidity) with an OkoLabs stage top environmental chamber (Oko Labs, PA, USA). Fluorophore excitation lasers and emission bandwidths were as follows: SYTO® 9 (ex/em 485/498 nm) 488 nm excitation, 495 to 550 nm emission collection; propidium iodide (ex/em 535/617 nm) 561 nm excitation, 595 to 650 nm emission collection. The laser beam scanned the visual field at a frequency of 600 Hz. The wells were captured in snapshots of 1024 × 1024 pixels representing the area of 153.76 mm^2.
(§8) All collected images were statistically evaluated to quantify biovolume utilizing the surface estimation procedure described in Parker et al.. […]

S. aureus 816 [5] = experiment: CLSM analysis, biofilm prevention; details: for Thickness (µm) MICBM80 / Thickness (µm) subCBM80: 24 h exposure; for Thickness (µm) MICBM80: substance at its MICBM80, mean ± SD; for Thickness (µm) subCBM80: substance at subinhibitory concentration, mean ± SD
Description: as §5, §6, §7, §8

[6] = 24 h, MIC and subinhibitory concentration

| SMILES | MICPC80 (S. aureus 1241 [1]) [µg/mL] | MICPC80 (S. aureus 816 [2]) [µg/mL] | MICBC80 (S. aureus 1241 [3]) [µg/mL] | Thickness (µm) MICBM80 (S. aureus 1241 [4]) [µm] | Thickness (µm) subCBM80 (S. aureus 1241 [4]) [µm] | proportion of membrane-compromised cells (S. aureus 816 [5]; [6]) | Thickness (µm) MICBM80 (S. aureus 816 [5]) [µm] | Thickness (µm) subCBM80 (S. aureus 816 [5]) [µm] | proportion of membrane-compromised cells (S. aureus 1241 [4]; [6]) |
| --- | --- | --- | --- | --- | --- | --- | --- | --- | --- |
| CC(=O)c1c(O)c(C)c(O)c2c1OC1=CC(=O)C(C(C)=O)C(=O)C12C (single isomer, unassigned; (+)) [UA, (+)-usnic acid] | 0.24 | 0.24 | 3.91 | 367 ± 40.5 | 392 ± 21.7 | up to 15% | 237 ± 41.9 | 270 ± 21 |  |
| CC(=O)N[C@@H](CS)C(=O)O [NAC, N-Acetyl-L-cysteine] | 3130 | 3130 | 6250 | 236 ± 50.5 | 212 ± 16.1 |  | 104 ± 67.8 | 181 ± 57.7 | up to 25% |

Source: article PMC8583417, “Evaluation of the Antimicrobial Efficacy of N-Acetyl-L-Cysteine, Rhamnolipids, and Usnic Acid—Novel Approaches to Fight Food-Borne Pathogens” (International Journal of Molecular Sciences, 2021)
